For data set [1], the target named is Eukaryotic elongation factor 2 kinase (Homo sapiens) (UniProt O00418). To be noted: 3 to 6 uM.
Description: Inhibition of EF2K at 3 to 6 uM relative to control
The target in data set [2] is Serine/threonine-protein kinase Nek7 (Homo sapiens) (UniProt Q8TDX7). The settings on record: 3 to 6 uM.
Description: Inhibition of NEK7 at 3 to 6 uM relative to control
For data set [3], the target named is Aurora kinase B (Homo sapiens) (UniProt Q96GD4). To be noted: 3 to 6 uM.
Description: Inhibition of Aurora B at 3 to 6 uM relative to control
In data set [4] the target is Serine/threonine-protein kinase Chk1 (Homo sapiens) (UniProt O14757). To be noted: 3 to 6 uM.
Description: Inhibition of CHK1 at 3 to 6 uM relative to control
Data set [5] has as its target SRSF protein kinase 1 (Homo sapiens) (UniProt Q96SB4). The settings on record: 3 to 6 uM.
Description: Inhibition of SRPK1 at 3 to 6 uM relative to control
Data set [6] has as its target Epithelial discoidin domain-containing receptor 1 (Homo sapiens) (UniProt Q08345). The settings on record: 3 to 6 uM.
Description: Inhibition of DDR1 at 3 to 6 uM relative to control
Data set [7] deals with Inhibitor of nuclear factor kappa-B kinase subunit epsilon (Homo sapiens) (UniProt Q14164). To be noted: 3 to 6 uM.
Description: Inhibition of IKKE at 3 to 6 uM relative to control
The target in data set [8] is Discoidin domain-containing receptor 2 (Homo sapiens) (UniProt Q16832). The settings on record: 3 to 6 uM.
Description: Inhibition of DDR2 at 3 to 6 uM relative to control
A short description of data set [9]: Membrane permeability by PAMPA assay. The format is ADME. The settings on record: read-out: permeability. (In general: In PAMPA a lipid-coated filter parts donor from acceptor wells.)
In data set [10] the target is MAP kinase-interacting serine/threonine-protein kinase 2 (Homo sapiens) (UniProt Q9HBH9). The settings on record: 3 to 6 uM.
Description: Inhibition of MNK2 at 3 to 6 uM relative to control
Data set [11] deals with Insulin-like growth factor 1 receptor (Homo sapiens) (UniProt P08069). To be noted: 3 to 6 uM.
Description: Inhibition of IGF1R at 3 to 6 uM relative to control
The target of data set [12] is Serine/threonine-protein kinase Sgk1 (Homo sapiens) (UniProt O00141). The settings on record: 3 to 6 uM.
Description: Inhibition of SGK at 3 to 6 uM relative to control
In data set [13] the target is Tyrosine-protein kinase CSK (Homo sapiens) (UniProt P41240). To be noted: 3 to 6 uM.
Description: Inhibition of CSK at 3 to 6 uM relative to control
Data set [14] deals with Serine/threonine-protein kinase PLK1 (Homo sapiens, UniProt P53350). Kind of data set: Inhibition of PLK.
The target of data set [15] is MAP kinase-activated protein kinase 5 (Homo sapiens) (UniProt Q8IW41). The settings on record: 3 to 6 uM.
Description: Inhibition of PRAK at 3 to 6 uM relative to control
The target in data set [16] is MAP kinase-interacting serine/threonine-protein kinase 1 (Homo sapiens) (UniProt Q9BUB5). To be noted: 3 to 6 uM.
Description: Inhibition of MNK1 at 3 to 6 uM relative to control
The target of data set [17] is Vascular endothelial growth factor receptor 1 (Homo sapiens, UniProt P17948). Kind of data set: Inhibition of VEGFR1.
Data set [18] can be described thus: Metabolic stability in human liver microsomes assessed as half life. The format is ADME, Microsome. (Microsomes from liver hold many membrane-bound enzymes, among them those of drug oxidation.)
The target of data set [19] is Mitogen-activated protein kinase kinase kinase 14 (Homo sapiens) (UniProt Q99558). The settings on record: 3 to 6 uM.
Description: Inhibition of NIK at 3 to 6 uM relative to control
Data set [20] deals with Dual specificity mitogen-activated protein kinase kinase 1 (Homo sapiens) (UniProt Q02750). Kind of data set: Inhibition of MKK1 at 3 uM relative to control; values are per cent of control.
The target of data set [21] is Serine/threonine-protein kinase Nek2 (Homo sapiens) (UniProt P51955). Kind of data set: Inhibition of NEK2a at 3 uM relative to control; values are per cent of control.
The target in data set [22] is Mitogen-activated protein kinase 1 (Homo sapiens) (UniProt P28482). Put plainly: Inhibition of MAPK2 at 3 uM relative to control; values are per cent of control.
The target of data set [23] is Ribosomal protein S6 kinase alpha-5 (Homo sapiens) (UniProt O75582). Put plainly: Inhibition of MSK1 at 3 uM relative to control; values are per cent of control.
The target in data set [24] is Casein kinase I isoform alpha (Homo sapiens) (UniProt P48729). Kind of data set: Inhibition of CK1 at 3 uM relative to control; values are per cent of control.
Data set [25] has as its target Serine/threonine-protein kinase Chk2 (Homo sapiens) (UniProt O96017). Kind of data set: Inhibition of CHK2 at 3 uM relative to control; values are per cent of control.
Data set [26] deals with T1, Serine/threonine-protein kinase N2 (Homo sapiens, UniProt Q16513). Kind of data set: Inhibition of PRK2; values are per cent of control.
Data set [27] concerns the target Serine/threonine-protein kinase Nek6 (Homo sapiens) (UniProt Q9HC98). Kind of data set: Inhibition of NEK6 at 3 uM relative to control; values are per cent of control.
For data set [28], the target named is Cyclin-dependent kinase 2 (Homo sapiens) (UniProt P24941). Kind of data set: Inhibition of CDK2 at 3 uM relative to control; values are per cent of control.
Data set [29] addresses Glycogen synthase kinase-3 beta (Homo sapiens) (UniProt P49841). Put plainly: Inhibition of GSK3-beta at 3 uM relative to control; values are per cent of control.
Data set [30] concerns the target MAP/microtubule affinity-regulating kinase 3 (Homo sapiens) (UniProt P27448). Put plainly: Inhibition of MARK3 at 3 uM relative to control; values are per cent of control.
The target of data set [31] is MAP kinase-interacting serine/threonine-protein kinase 1 (Homo sapiens) (UniProt Q9BUB5). Kind of data set: Inhibition of MNK1 at 3 uM relative to control; values are per cent of control.
Data set [32] deals with T1, Serine/threonine-protein kinase N2.
The nature of data set [33]: Inhibition of CK2 at 3 uM relative to control; values are per cent of control.
Data set [34] concerns the target Mitogen-activated protein kinase 15 (Homo sapiens) (UniProt Q8TD08). Put plainly: Inhibition of ERK8 at 3 uM relative to control; values are per cent of control.
The nature of data set [35]: Inhibition of AMPK at 3 uM relative to control; values are per cent of control.
Data set [36] addresses MAP kinase-activated protein kinase 2 (Homo sapiens) (UniProt P49137). Kind of data set: Inhibition of MAPKAPK2 at 3 uM relative to control; values are per cent of control.
The next data set deals with ROCK1 (Homo sapiens). Put plainly: Inhibition of ROCK1.
Data set [37] deals with MAP kinase-interacting serine/threonine-protein kinase 2 (Homo sapiens) (UniProt Q9HBH9). Kind of data set: Inhibition of MNK2 at 3 uM relative to control; values are per cent of control.
The target in data set [38] is MAP kinase-activated protein kinase 3 (Homo sapiens) (UniProt Q16644). Put plainly: Inhibition of MAPKAPK3 at 3 uM relative to control; values are per cent of control.

Sequence of MAP kinase-interacting serine/threonine-protein kinase 2 (Homo sapiens) (Q9HBH9 whole entry, looked up): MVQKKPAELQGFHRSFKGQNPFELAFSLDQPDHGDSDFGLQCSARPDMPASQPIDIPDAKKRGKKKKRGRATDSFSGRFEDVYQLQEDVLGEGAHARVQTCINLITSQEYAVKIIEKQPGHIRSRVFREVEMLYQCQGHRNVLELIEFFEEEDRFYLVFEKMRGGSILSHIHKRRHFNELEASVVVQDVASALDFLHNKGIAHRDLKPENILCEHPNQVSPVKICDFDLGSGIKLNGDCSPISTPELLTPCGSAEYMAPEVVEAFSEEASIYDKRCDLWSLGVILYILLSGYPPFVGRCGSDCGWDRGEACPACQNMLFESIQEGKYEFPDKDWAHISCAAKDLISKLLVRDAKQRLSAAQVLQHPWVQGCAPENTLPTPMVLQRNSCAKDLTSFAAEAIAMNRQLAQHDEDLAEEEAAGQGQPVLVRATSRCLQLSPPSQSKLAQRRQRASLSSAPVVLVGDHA
Sequence of MAP kinase-interacting serine/threonine-protein kinase 1 (Homo sapiens) (Q9BUB5 whole entry, looked up): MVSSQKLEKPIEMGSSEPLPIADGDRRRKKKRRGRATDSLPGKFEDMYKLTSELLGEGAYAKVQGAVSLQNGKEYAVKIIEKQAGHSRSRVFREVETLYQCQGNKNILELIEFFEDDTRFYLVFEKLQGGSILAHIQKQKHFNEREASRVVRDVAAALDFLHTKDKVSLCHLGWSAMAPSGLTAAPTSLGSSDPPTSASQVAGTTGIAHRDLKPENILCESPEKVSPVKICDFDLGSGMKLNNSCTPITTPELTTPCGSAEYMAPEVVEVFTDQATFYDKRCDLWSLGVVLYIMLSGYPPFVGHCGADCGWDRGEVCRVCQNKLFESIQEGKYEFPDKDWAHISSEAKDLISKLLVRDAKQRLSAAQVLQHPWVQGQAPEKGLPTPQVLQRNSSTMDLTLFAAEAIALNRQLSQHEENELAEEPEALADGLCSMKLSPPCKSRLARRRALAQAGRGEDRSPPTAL
Sequence of Inhibitor of nuclear factor kappa-B kinase subunit epsilon (Homo sapiens) (Q14164 whole entry, the tested form may be a part): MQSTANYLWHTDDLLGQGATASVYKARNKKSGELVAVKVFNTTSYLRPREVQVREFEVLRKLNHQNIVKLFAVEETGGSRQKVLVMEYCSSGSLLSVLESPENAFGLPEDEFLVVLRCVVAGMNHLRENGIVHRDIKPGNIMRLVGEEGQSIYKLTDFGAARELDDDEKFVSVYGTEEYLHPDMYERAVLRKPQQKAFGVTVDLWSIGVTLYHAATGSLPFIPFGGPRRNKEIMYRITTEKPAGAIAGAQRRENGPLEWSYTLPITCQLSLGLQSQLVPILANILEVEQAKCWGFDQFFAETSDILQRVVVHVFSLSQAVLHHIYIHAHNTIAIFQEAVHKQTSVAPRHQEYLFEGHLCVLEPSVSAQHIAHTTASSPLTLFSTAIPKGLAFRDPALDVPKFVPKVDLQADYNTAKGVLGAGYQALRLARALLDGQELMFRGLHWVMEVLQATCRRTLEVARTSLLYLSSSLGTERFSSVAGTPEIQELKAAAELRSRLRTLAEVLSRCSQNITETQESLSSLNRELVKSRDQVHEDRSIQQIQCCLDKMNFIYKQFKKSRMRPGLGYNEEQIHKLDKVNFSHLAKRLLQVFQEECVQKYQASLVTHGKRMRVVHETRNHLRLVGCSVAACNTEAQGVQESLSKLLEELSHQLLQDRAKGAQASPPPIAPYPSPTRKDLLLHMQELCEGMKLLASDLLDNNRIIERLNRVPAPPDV
Sequence of Serine/threonine-protein kinase Sgk1 (Homo sapiens) (O00141 whole entry): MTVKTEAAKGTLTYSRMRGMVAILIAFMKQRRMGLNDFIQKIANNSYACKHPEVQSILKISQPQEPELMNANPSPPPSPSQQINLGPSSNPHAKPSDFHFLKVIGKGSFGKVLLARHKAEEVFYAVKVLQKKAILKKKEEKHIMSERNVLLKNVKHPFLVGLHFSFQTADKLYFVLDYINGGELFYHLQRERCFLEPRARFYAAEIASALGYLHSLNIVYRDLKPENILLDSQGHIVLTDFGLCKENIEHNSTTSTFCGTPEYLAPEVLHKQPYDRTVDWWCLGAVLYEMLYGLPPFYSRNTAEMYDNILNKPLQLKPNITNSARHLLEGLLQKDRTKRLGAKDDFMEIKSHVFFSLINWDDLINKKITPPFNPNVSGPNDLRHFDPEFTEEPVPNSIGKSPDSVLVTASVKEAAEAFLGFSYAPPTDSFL
Sequence of Aurora kinase B (Homo sapiens) (Q96GD4 whole entry): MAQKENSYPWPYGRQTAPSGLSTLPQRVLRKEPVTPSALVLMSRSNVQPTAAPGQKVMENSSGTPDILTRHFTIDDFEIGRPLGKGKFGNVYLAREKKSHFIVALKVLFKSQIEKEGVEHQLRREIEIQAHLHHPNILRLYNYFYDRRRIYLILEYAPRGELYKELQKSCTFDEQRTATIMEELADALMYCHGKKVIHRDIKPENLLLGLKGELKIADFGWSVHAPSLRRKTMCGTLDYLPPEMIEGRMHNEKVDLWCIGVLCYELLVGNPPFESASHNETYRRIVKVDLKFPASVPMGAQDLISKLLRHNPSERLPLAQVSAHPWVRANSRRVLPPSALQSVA
Sequence of Discoidin domain-containing receptor 2 (Homo sapiens) (Q16832 whole entry, the tested form may be a part): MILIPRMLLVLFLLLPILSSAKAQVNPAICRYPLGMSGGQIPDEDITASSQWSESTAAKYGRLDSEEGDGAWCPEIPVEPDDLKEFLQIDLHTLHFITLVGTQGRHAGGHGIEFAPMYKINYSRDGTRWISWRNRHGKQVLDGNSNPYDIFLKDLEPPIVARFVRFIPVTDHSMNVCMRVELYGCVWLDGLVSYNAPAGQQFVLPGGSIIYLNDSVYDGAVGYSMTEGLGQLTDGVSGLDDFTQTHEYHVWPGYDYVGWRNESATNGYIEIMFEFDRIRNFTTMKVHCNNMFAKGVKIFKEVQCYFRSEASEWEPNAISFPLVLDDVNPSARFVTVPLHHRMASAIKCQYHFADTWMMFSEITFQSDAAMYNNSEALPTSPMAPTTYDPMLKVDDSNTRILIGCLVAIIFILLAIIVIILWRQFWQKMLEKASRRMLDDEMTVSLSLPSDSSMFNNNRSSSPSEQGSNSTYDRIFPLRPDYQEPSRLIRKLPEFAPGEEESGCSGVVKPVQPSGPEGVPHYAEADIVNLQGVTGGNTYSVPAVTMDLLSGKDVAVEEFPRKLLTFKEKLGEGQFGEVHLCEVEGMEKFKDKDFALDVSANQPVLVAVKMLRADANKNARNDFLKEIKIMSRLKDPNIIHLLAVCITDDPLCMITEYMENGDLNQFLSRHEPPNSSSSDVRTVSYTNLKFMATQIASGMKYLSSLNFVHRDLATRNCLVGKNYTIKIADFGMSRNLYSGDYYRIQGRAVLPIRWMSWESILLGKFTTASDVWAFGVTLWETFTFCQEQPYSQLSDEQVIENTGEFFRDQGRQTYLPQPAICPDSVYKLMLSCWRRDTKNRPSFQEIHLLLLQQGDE
Sequence of Mitogen-activated protein kinase 15 (Homo sapiens) (Q8TD08 whole entry): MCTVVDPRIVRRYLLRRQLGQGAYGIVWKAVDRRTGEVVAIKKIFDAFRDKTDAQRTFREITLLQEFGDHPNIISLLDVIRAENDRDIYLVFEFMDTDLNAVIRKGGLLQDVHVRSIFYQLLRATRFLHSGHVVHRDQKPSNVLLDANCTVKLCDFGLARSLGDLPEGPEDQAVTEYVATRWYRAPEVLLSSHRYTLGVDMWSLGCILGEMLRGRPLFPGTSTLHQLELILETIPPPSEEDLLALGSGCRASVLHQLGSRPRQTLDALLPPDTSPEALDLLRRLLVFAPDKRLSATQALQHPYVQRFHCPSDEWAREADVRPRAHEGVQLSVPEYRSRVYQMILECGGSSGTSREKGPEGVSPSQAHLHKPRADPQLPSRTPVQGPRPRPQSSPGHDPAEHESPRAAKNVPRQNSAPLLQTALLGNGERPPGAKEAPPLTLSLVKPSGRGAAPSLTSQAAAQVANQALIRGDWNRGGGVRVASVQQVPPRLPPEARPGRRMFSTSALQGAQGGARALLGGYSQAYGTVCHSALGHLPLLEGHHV
Sequence of Serine/threonine-protein kinase Chk2 (Homo sapiens) (O96017 whole entry): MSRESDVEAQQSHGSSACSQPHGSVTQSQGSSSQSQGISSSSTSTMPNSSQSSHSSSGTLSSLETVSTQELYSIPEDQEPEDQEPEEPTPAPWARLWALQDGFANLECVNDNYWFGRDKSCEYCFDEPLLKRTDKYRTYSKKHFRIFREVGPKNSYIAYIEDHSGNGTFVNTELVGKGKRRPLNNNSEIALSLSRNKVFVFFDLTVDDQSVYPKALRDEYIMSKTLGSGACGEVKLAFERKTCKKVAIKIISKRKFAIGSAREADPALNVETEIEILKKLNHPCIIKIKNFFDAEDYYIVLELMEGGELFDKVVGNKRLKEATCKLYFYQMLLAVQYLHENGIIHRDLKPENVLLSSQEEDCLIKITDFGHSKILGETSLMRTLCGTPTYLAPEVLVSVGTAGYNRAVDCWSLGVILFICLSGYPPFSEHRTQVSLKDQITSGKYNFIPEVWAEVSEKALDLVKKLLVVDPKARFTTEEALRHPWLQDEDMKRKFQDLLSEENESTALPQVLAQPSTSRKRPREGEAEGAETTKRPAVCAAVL
Sequence of Dual specificity mitogen-activated protein kinase kinase 1 (Homo sapiens) (Q02750 whole entry): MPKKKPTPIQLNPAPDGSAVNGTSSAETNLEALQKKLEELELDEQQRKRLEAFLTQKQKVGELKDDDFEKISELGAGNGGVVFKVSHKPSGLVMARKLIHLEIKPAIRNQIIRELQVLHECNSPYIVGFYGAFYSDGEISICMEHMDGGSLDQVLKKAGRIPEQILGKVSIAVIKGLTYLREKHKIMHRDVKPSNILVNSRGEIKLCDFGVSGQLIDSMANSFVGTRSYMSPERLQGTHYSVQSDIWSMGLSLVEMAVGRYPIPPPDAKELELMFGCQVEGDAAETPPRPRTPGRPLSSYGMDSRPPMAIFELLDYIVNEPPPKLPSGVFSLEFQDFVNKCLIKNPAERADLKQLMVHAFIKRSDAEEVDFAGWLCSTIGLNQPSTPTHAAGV

For `COc1ccc(C(=O)NCc2cccc(C(=O)Nc3ccc4c(c3)CNCC4)c2)cc1OC`, the residual activity in data set [1], in [2], in data set [3], in [4], in [5] and in data set [6] was more than 50% throughout. For the same compound, the residual activity in data set [7], in data set [8], in data set [10], in data set [11], in [12] and in data set [13] was more than 50% throughout. Moreover, the residual activity in [15], in [16] and in data set [19] was more than 50% each time. Also, the Papp in [9] came out at 3.6 ×10⁻⁶ cm/s. Further, the IC50 in data set [14] and in [17] was more than 10000 nM throughout. In data set [18], the half-life (in general, the time needed for the level to fall by half in the phase considered) worked out at 2.43 h.
As to `NC(=O)c1ccc(NC(=O)NCc2cccc(C(=O)Nc3ccc4c(c3)CNCC4)c2)cc1`, the residual activity in data set [20], in data set [21], in [22], in data set [23], in data set [24] and in data set [25] was more than 50% each time. In addition, the residual activity was 33% in [26]; more than 50% in data set [27]; more than 50% in data set [28]; more than 50% in [29]; more than 50% in [30]; more than 50% in data set [31]. In addition, the residual activity in data set [33], in data set [34], in [35], in [36], in data set [37] and in data set [38] was more than 50% in each case. Further, the IC50 (commonly the concentration at which inhibition is half-maximal) in data set [32] is 770 nM; in the data set with ROCK1 (Homo sapiens), 6 nM.
